Reference: patent publication US6855730B2, “3-methylidenyl-2-indolinone modulators of protein kinase” (Sugen, Inc., priority 1998, dated 2005)

Target: T1, chimeric receptor containing the EGFR extracellular domain and intracellular HER2 kinase domain (Homo sapiens, UniProt P04626)
T1 construct: fused on or other part: EGFR ectodomain + HER2 intracellular part, ATP-site indolinones: HER2's kinase
Assay: EGF Receptor-HER2 chimeric receptor assay in whole cells (ELISA)
Format: cell-based
Details: read-out: HER-2 kinase IC50
Experimental: EGF Receptor-HER2 Chimeric Receptor Assay In Whole Cells.
HER2 kinase activity in whole EGFR-NIH3T3 cells are measured as described below:
• a. […] 05-101 (UBI) (a monoclonal antibody recognizing an EGFR extracellular domain). • c. Anti-phosphotyrosine antibody (anti-Ptyr) (polyclonal) (see, Fendley, et al., supra). • d. Detection antibody: Goat anti-rabbit IgG horseradish peroxidase conjugate, TAGO, Inc., Burlingame, Calif. • e. TBST buffer:
• h. Stock reagents of:
Pre-coat ELISA Plate • 1. […] Coated plates are good for up to 10 days when stored at 4° C. • 2. On day of use, remove coating buffer and replace with 100 μl blocking buffer (5% Carnation Instant Non-Fat Dry Milk in PBS). Incubate the plate, shaking, at room temperature (about 23° C. to 25° C.) for 30 minutes. Just prior to use, remove blocking buffer and wash plate 4 times with TBST buffer.
Seeding Cells • 1. An NIH3T3 cell line overexpressing a chimeric receptor containing the EGFR extracellular domain and intracellular HER2 kinase domain can be used for this assay. • 2. Choose dishes having 80-90% confluence for the experiment. Trypsinize cells and stop reaction by adding 10% fetal bovine serum. Suspend cells in DMEM medium (10% CS DMEM medium) and centrifuge once at 1500 rpm, at room temperature for 5 minutes. • 3. Resuspend cells in seeding medium (DMEM, 0.5% bovine serum), and count the cells using trypan blue. Viability above 90% is acceptable. Seed cells in DMEM medium (0.5% bovine serum) at a density of 10,000 cells per well, 100 μl per well, in a 96 well microtiter plate. Incubate seeded cells in 5% CO2. at 37° C. for about 40 hours.
Assay Procedures • 1. Check seeded cells for contamination using an inverted microscope. Dilute drug stock (10 mg/ml in DMSO) 1:10 in DMEM medium, then transfer 5 μl to a […] well for a final drug dilution of 1:200 and a final DMSO concentration of 1%. Control wells receive DMSO alone. Incubate in 5% CO2 at 37° C. for two hours. • 2. Prepare EGF ligand: dilute stock EGF in DMEM so that upon transfer of 10 μl dilute EGF (1:12 dilution), 100 nM final concentration is attained. • 3. Prepare fresh HNTG* sufficient for 100 μl per well, and place on ice.
• 4. After 120 minutes incubation with drug, add prepared […] ligand to cells, 10 μl per well, to a final concentration of 100 nM. Control wells receive DMEM alone. Incubate with shaking, at room temperature, for 5 minutes. • 5. Remove drug, EGF, and DMEM. Wash cells twice with PBS. Transfer HNTG* to cells, 100 μl per well. Place on ice for 5 minutes. Meanwhile, remove blocking buffer from other ELISA plate and wash with TBST as described above. • 6. With a pipette tip securely fitted to a micropipettor, scrape cells from plate and homogenize cell material by repeatedly aspirating and dispensing the HNTG* lysis buffer. Transfer lysate to a coated, blocked, and washed ELISA plate. Incubate shaking at room temperature for one hour. • 7. Remove lysate and wash 4 times with TBST. Transfer freshly diluted anti-Ptyr antibody to ELISA plate at 100 μl per well. Incubate shaking at room temperature for 30 minutes in the presence of the anti-Ptyr antiserum (1:3000 dilution in TBST). • 8. Remove the anti-Ptyr antibody and wash 4 times with TBST. Transfer the freshly diluted TAGO anti-rabbit IgG antibody to the ELISA plate at 100 μl per well. Incubate shaking at room temperature for 30 minutes (anti-rabbit IgG antibody: 1:3000 dilution in TBST). • 9. Remove TAGO detection antibody and wash 4 times with TBST. Transfer freshly prepared ABTS/H2O2 solution to ELISA plate, 100 μl per well. Incubate shaking at room temperature for 20 minutes. (ABTS/H2O2 solution: 1.0 μl 30% H2O2 in 10 ml ABTS stock). • 10. Stop reaction by adding 50 μl 5N H2SO4 (optional), and determine O.D. at 410 nm. • 11. The maximal phosphotyrosine signal is determined by subtracting the value of the negative controls from the positive controls. […]

T1 sequence (P04626 720-1255 limits assumed, change not shown): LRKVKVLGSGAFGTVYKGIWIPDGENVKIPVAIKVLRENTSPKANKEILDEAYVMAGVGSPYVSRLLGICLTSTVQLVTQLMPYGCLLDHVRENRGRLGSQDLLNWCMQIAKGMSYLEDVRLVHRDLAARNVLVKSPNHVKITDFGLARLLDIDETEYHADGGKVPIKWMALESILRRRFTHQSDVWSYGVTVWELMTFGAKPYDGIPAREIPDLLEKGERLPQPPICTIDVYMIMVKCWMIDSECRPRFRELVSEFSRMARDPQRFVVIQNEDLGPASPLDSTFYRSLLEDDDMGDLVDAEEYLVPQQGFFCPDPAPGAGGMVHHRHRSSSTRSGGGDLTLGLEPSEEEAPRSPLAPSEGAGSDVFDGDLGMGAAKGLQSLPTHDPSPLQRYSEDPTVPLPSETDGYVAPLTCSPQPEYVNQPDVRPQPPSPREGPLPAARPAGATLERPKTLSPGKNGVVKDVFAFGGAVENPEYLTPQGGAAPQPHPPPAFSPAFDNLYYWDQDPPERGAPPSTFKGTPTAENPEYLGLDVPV

Row | IC50 [µM] | Structure (SMILES)
1 | > 100 | COc1ccc(C=C2C(=O)Nc3cc(NC(C)=O)ccc32)cc1-c1cccc(NC(C)=O)c1 (mixture of isomers) [Example 63, N-[3-(3′-Acetylamino-6-methoxybiphenyl-3-ylmethylene)-2-oxo-2,3-dihydro-1H-indol-6-yl]-acetamide]
2 | > 100 | CC1(C)CCc2cc(C=C3C(=O)Nc4ccc(Br)cc43)ccc2O1 (racemic) [Example 34, 5-Bromo-3-(2,2-dimethylchroman-6-ylmethylene)-1,3-dihydroindol-2-one]
3 | > 100 | CNS(=O)(=O)c1ccc2c(c1)C(=Cc1[nH]c3ccccc3c1C)C(=O)N2 (racemic) [Example 154, 3-(3-Methyl-1H-indol-2-ylmethylene)-2-oxo-2,3-dihydro-1H-indole-5-sulfonic acid methylamide]
4 | 6.4 | COc1c(C(C)C)cc(/C=C2/C(=O)Nc3cc(NC(C)=O)ccc32)cc1C(C)C [Example 3, N-[3-(3,5-Diisopropyl-4-methoxybenzylidene)-2-oxo-2,3-dihydro-1H-indol-6-yl]-acetamide]
5 | 5.8 | COc1c(C(C)C)cc(/C=C2/C(=O)Nc3cc(O)ccc32)cc1C(C)C [Example 4, 3-(3,5-Diisopropyl-4-methoxybenzylidene)-6-hydroxy-1,3-dihydroindol-2-one]
6 | 6.5 | COc1c(C(C)C)cc(/C=C2/C(=O)Nc3ccc(C(C)=O)cc32)cc1C(C)C [Example 5, 5-Acetyl-3-(3,5-diisopropyl-4-methoxybenzylidene)-1,3dihydroindol-2-one]
7 | 15.3 | COC(=O)c1ccc2c(c1)/C(=C\c1cc(C(C)C)c(OC)c(C(C)C)c1)C(=O)N2 [Example 6, 3-(3,5-Diisopropyl-4-methoxybenzylidene)-2-oxo-2,3-dihydro-1H-indole-5-carboxylic acid methyl ester]
8 | > 100 | COc1ccc(/C=C2/C(=O)Nc3ccccc32)cc1C(C)C [Example 7, 3-(3-Isopropyl-4-methoxybenzylidene)-1,3-dihydroindol-2-one]
9 | 8.36 | COc1cc(C)c(C=C2C(=O)Nc3ccccc32)cc1C(C)C [Example 8, 3-(5-Isopropyl-4-methoxy-2-methylbenzylidene)-1,3-dihydroindol-2-one]
10 | > 100 | COc1cc(C)c(C=C2C(=O)Nc3ccc(Cl)cc32)cc1C(C)C [Example 9, 5-Chloro-3-(5-isopropyl-4-methoxy-2-methylbenzylidene)-1,3-dihydroindol-2-one]
11 | 45.8 | COc1ccc(/C=C2/C(=O)Nc3ccccc32)cc1C1CCCC1 [Example 10, 3-(3-Cyclopentyl-4-methoxybenzylidene)-1,3-dihydroindol-2-one]
12 | 57.3 | COc1ccc(/C=C2/C(=O)Nc3ccc(F)cc32)cc1C1CCCC1 [Example 11, 3-(3-Cyclopentyl-4-methoxybenzylidene)-5-fluoro-1,3-dihydroindol-2-one]
13 | > 100 | COc1ccc(/C=C2/C(=O)Nc3ccccc32)cc1C1CCCCC1 [Example 12, 3-(3-Cyclohexyl-4-methoxybenzylidene)-1,3-dihydroindol-2-one]
14 | > 100 | COc1ccc(/C=C2/C(=O)Nc3ccc(Br)cc32)cc1-c1ccccc1 [Example 13, 5-Bromo-3-(6-methoxybiphenyl-3-ylmethylene)-1,3-dihydroindol-2-one]
15 | 22.7 | O=C1Nc2ccc(Cl)cc2/C1=C\c1ccc2c(c1)CCO2 [Example 14, 5-Chloro-3-(2,3-dihydro-benzofuran-5-ylmethylene)-1,3-dihydroindol-2-one]
16 | 19 | CC1(C)CCc2cc(/C=C3/C(=O)Nc4ccc(Cl)cc43)ccc2O1 [Example 15, 5-Chloro-3-(2,2-dimethyl-chroman-6-ylmethylene)-1,3-dihydroindol-2-one]

Row | IC50 [µM] | Structure (SMILES)
17 | 9.9 | CC(=O)Nc1ccc2c(c1)NC(=O)/C2=C/c1ccc(OCCN2CCOCC2)c(C2CCCCC2)c1 [Example 16, N-{3-[3-Cyclohexyl-4-(2-morpholin-4-ylethoxy)-benzylidene]-2-oxo-2,3-dihydro-1H-indol-6-yl}-acetamide]
18 | 7.8 | COc1ccc2c(c1)/C(=C\c1cc(C(C)C)c(OC)c(C(C)C)c1)C(=O)N2 [Example 17, 3-(3,5-Diisopropyl-4-methoxybenzylidene)-5-methoxy-1,3-dihydroindol-2-one]
19 | 8.4 | COc1ccc(/C=C2/C(=O)Nc3cc(NC(C)=O)ccc32)cc1-c1ccsc1 [Example 18, N-[3-(4-Methoxy-3-thiophene-3-ylbenzylidene)-2-oxo-2,3-dihydro-1H-indol-6-yl]-acetamide]
20 | 9.2 | COc1c(C(C)C)cc(/C=C2/C(=O)Nc3ccc(C)cc32)cc1C(C)C [Example 19, 3-(3,5-Diisopropyl-4-methoxybenzylidene)-5-methyl-1,3-dihydroindol-2-one]
21 | 38.6 | COc1c(C(C)C)cc(/C=C2/C(=O)Nc3ccc(N)cc32)cc1C(C)C [Example 20, 5-Amino-3-(3,5-diisopropyl-4-methoxy-benzylidene)-1,3-dihydroindol-2-one]
22 | 11.8 | COc1c(C)cc(/C=C2/C(=O)Nc3ccc(Cl)cc32)cc1C [Example 21, 5-Chloro-3-(4-methoxy-3,5-dimethylbenzylidene)-1,3-dihydroindol-2-one]
23 | 12.4 | COc1c(C(C)C)cc(/C=C2/C(=O)Nc3cc(F)ccc32)cc1C(C)C [Example 22, 3-(3,5-Diisopropyl-4-methoxybenzylidene)-6-fluoro-1,3-dihydroindol-2-one]
24 | 33.2 | CC1(C)CCc2cc(/C=C3/C(=O)Nc4ccc(F)cc43)ccc2O1 [Example 23, 3-(2,2-Dimethylchroman-6-ylmethylene)-5-fluoro-1,3-dihydroindol-2-one]
25 | 13.6 | CC(C)c1cc(/C=C2/C(=O)Nc3ccc(Cl)cc32)cc(C(C)C)c1OCCN1CCOCC1 [Example 24, 5-chloro-3-[3,5-diisopropyl-4-(2-morpholin-4-ylethoxy)-benzylidene]-1,3-dihydroindol-2-one]
26 | 15.3 | COc1ccc(/C=C2/C(=O)Nc3ccc(CCN4CCOCC4)cc32)cc1-c1ccsc1 [Example 26, 3-(4-Methoxy-3-thiophen-3-ylbenzylidene)-5-(2-morpholin-4-yl-ethyl)-1,3-dihydroindol-2-one]
27 | 15.8 | COc1cc(C)c(C=C2C(=O)Nc3cc(NC(C)=O)ccc32)cc1C(C)C [Example 27, N-[3-(5-Isopropyl-4-methoxy-2-methyl-benzylidene)-2-oxo-2,3-dihydro-1H-indol-6-yl]-acetamide]
28 | 16.9 | CCc1ccc2c(c1)/C(=C\c1cc(C(C)C)c(OC)c(C(C)C)c1)C(=O)N2 [Example 28, 3-(3,5-Diisopropyl-4-methoxbenzylidene)-5-ethyl-1,3-dihydroindol-2-one]
29 | 17.1 | COc1ccc(C=C2C(=O)Nc3ccccc32)cc1-c1cccc(NC(C)=O)c1 [Example 29, N-[2′-Methoxy-5′-(2-oxo-1,2-dihydroindol-3-ylidenemethyl)-biphenyl-3-yl]-acetamide]
30 | 28 | COc1cc(C)c(/C=C2/C(=O)Nc3ccc(F)cc32)cc1C(C)C [Example 30, 5-Fluoro-3-(5-isopropyl-4-methoxy-2-methyl-benzylidene)-1,3-dihydroindol-2-one]
31 | 12.9 | COc1ccc(/C=C2/C(=O)Nc3cc(NC(C)=O)ccc32)cc1-c1cccs1 [Example 31, N-[3-(4-Methoxy-3-thiophen-2-ylbenzylidene)-2-oxo-2,3-dihydro-1H-indol-6-yl]-acetamide]
